Test results taken from ChEMBL document CHEMBL3217730, “Determination of structural requirements of influenza neuraminidase type A inhibitors and binding interaction analysis with the active site of A/H1N1 by 3D-QSAR CoMFA and CoMSIA modeling” (Medchemcomm, 2011).

Target: Neuraminidase (Influenza A virus, UniProt B4URF0)
Assay: Inhibition of Influenza virus neuraminidase A
Set-up: species or system unidentified influenza virus

Sequence of Neuraminidase (B4URF0 whole entry): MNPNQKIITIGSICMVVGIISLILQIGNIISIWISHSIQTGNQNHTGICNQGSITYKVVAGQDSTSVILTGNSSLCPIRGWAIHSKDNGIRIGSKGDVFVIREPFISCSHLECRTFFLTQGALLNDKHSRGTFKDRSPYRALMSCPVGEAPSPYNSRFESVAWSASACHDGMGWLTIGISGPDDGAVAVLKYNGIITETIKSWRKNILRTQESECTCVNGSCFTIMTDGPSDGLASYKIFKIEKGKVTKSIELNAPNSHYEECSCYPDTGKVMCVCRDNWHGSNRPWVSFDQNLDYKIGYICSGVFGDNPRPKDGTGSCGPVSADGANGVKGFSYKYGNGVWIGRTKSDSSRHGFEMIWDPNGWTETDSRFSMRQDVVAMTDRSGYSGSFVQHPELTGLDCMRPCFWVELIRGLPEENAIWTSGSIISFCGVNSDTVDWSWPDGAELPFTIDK

SMILES: CC[C@@H](C)O[C@@H]1C=C(C(=O)O)C[C@H](NC(=N)N)[C@H]1NC(C)=O
- IC50 (read-out: IC50): 0.5 µM
- IC50 (read-out: pIC50 (converted)): 0.0005 µM

SMILES: CC(=O)N[C@@H]1[C@@H](N)CC(C(=O)O)=C[C@H]1Oc1ccccc1
- IC50 (read-out: IC50): 530 µM
- IC50 (read-out: pIC50 (converted)): 0.531 µM

SMILES: CCC(C)O[C@@H]1C=C(C(=O)O)C[C@H](N)[C@H]1NC(C)=O (stereo partly drawn)
- IC50 (read-out: IC50): 10 µM

SMILES: CCO[C@@H]1C=C(C(=O)O)C[C@H](N)[C@H]1NC(C)=O
- IC50 (read-out: IC50): 2000 µM
- IC50 (read-out: pIC50 (converted)): 2 µM

SMILES: CCCCCCC[C@H](CC)O[C@@H]1C=C(C(=O)O)C[C@H](N)[C@H]1NC(C)=O
- IC50 (read-out: IC50): 1 µM
- IC50 (read-out: pIC50 (converted)): 0.001 µM

SMILES: CCCO[C@@H]1C=C(C(=O)O)C[C@H](N=C(N)N)[C@H]1NC(C)=O
- IC50 (read-out: IC50): 2 µM
- IC50 (read-out: pIC50 (converted)): 0.002 µM

SMILES: CCCCCCCCCCO[C@@H]1C=C(C(=O)O)C[C@H](N)[C@H]1NC(C)=O
- IC50 (read-out: IC50): 600 µM
- IC50 (read-out: pIC50 (converted)): 0.601 µM

SMILES: C=CC[C@H](CC)O[C@@H]1C=C(C(=O)O)C[C@H](N)[C@H]1NC(C)=O
- IC50 (read-out: IC50): 1 µM
- IC50 (read-out: pIC50 (converted)): 0.001 µM

SMILES: CO[C@@H]1C=C(C(=O)O)C[C@H](N)[C@H]1NC(C)=O
- IC50 (read-out: IC50): 3700 µM
- IC50 (read-out: pIC50 (converted)): 3.71 µM

SMILES: CC(=O)N[C@H]1[C@H](O)C=C(C(=O)O)C[C@@H]1N=C(N)N
- IC50 (read-out: IC50): 100 µM
- IC50 (read-out: pIC50 (converted)): 0.1 µM

SMILES: CC[C@@H](CCC1CCCCC1)O[C@@H]1C=C(C(=O)O)C[C@H](N)[C@H]1NC(C)=O
- IC50 (read-out: IC50): 1 µM
- IC50 (read-out: pIC50 (converted)): 0.001 µM

SMILES: CCC(CC)C(=O)N1C[C@@H](N)[C@@H](C(=O)O)C1
- IC50 (read-out: IC50): 22 µM

SMILES: CCN(CC)C(=O)N1C[C@@H](N)[C@@H](C(=O)O)C1
- IC50 (read-out: IC50): 25 µM

SMILES: CCCN(CCC)C(=O)N1C[C@@H](N)[C@@H](C(=O)O)C1
- IC50 (read-out: IC50): 32 µM

SMILES: CCN(C(=O)N1C[C@@H](N)[C@@H](C(=O)O)C1)C(C)C
- IC50 (read-out: IC50): 1.6 µM
- IC50 (read-out: pIC50 (converted)): 1.06 µM

SMILES: CC(C)N(C(=O)N1C[C@@H](N)[C@@H](C(=O)O)C1)C(C)C
- IC50 (read-out: IC50): 4 µM

SMILES: CC(C)N(CCO)C(=O)N1C[C@@H](N)[C@@H](C(=O)O)C1
- IC50 (read-out: IC50): 21 µM

SMILES: CC(C)N(CCCC(=O)O)C(=O)N1C[C@@H](N)[C@@H](C(=O)O)C1
- IC50 (read-out: IC50): 19 µM

SMILES: CC(C)N(CCN)C(=O)N1C[C@@H](N)[C@@H](C(=O)O)C1
- IC50 (read-out: IC50): 46 µM

SMILES: CCN(C(=O)N1C[C@H](C(=O)O)[C@H](NC(=N)N)C1)C(C)C
- IC50 (read-out: IC50): 13 µM

SMILES: CCN(C(=O)N1C[C@H](N)[C@H](C(=O)O)[C@@H]1CNC(C)=O)C(C)C
- IC50 (read-out: IC50): 7.5 µM

SMILES: CCC(=O)NC[C@H]1[C@@H](C(=O)O)[C@@H](N)CN1C(=O)N(CC)C(C)C
- IC50 (read-out: IC50): 16 µM

SMILES: C=CC(=O)NC[C@H]1[C@@H](C(=O)O)[C@@H](N)CN1C(=O)N(CC)C(C)C
- IC50 (read-out: IC50): 96 µM

SMILES: CCN(C(=O)N1C[C@H](N)[C@H](C(=O)O)[C@@H]1CNC(=O)C(F)(F)F)C(C)C
- IC50 (read-out: IC50): 0.28 µM

SMILES: CCN(C(=O)N1C[C@H](N)[C@H](C(=O)O)[C@@H]1CNS(C)(=O)=O)C(C)C
- IC50 (read-out: IC50): 130 µM

SMILES: CCC(CC)NC(=O)[C@@H](NC(C)=O)[C@H]1CC(C(=O)O)C[C@@H]1NC(=N)N (stereo partly drawn)
- IC50 (read-out: IC50): 0.06 µM

SMILES: CCC(CC)NC(=O)[C@H](NC(C)=O)[C@H]1CC(C(=O)O)C[C@@H]1NC(=N)N (stereo partly drawn)
- IC50 (read-out: IC50): 25 µM

SMILES: CCN(CC)C(=O)[C@@H](NC(C)=O)[C@H]1CC(C(=O)O)C[C@@H]1NC(=N)N (stereo partly drawn)
- IC50 (read-out: IC50): 0.07 µM
- IC50 (read-out: pIC50 (converted)): 0.00701 µM

SMILES: CCCN(CCC)C(=O)[C@@H](NC(C)=O)[C@H]1CC(C(=O)O)C[C@@H]1NC(=N)N (stereo partly drawn)
- IC50 (read-out: IC50): 0.043 µM

SMILES: CC[C@H](C)O[C@@H]1C=C(C(=O)O)C[C@H](N)[C@H]1NC(C)=O
- IC50 (read-out: IC50): 9 µM
- IC50 (read-out: pIC50 (converted)): 0.00902 µM

SMILES: CC[C@H](C)O[C@@H]1C=C(C(=O)O)C[C@H](NC(=N)N)[C@H]1NC(C)=O
- IC50 (read-out: IC50): 0.5 µM
- IC50 (read-out: pIC50 (converted)): 0.0005 µM

SMILES: CC(=O)N[C@@H]1[C@@H](N)CC(C(=O)O)=C[C@H]1OC(C)C
- IC50 (read-out: IC50): 0.001 µM

SMILES: CC(=O)N[C@H]1[C@H](OC(C)C)C(C)=C(C(=O)O)C[C@@H]1N
- IC50 (read-out: IC50): 2.3 µM

SMILES: CC(=O)N[C@H]1[C@H](OC(C)C)C(F)=C(C(=O)O)C[C@@H]1N
- IC50 (read-out: IC50): 0.003 µM

SMILES: CC(=O)N[C@@H]1[C@@H](N)[C@H](C)C(C(=O)O)=C[C@H]1OC(C)C
- IC50 (read-out: IC50): 1.5 µM

SMILES: CCCC[C@@H](NC(C)=O)[C@@H]1CC(C(=O)O)C[C@@H]1NC(=N)N (stereo partly drawn)
- IC50 (read-out: IC50): 0.013 µM

SMILES: CCCC[C@@H](NC(C)=O)[C@@H]1CC(C(=O)O)C[C@H]1NC(=N)N (stereo partly drawn)
- IC50 (read-out: IC50): 14.6 µM

SMILES: CCCN(CCC)C(=O)[C@@H](NC(C)=O)[C@H]1C[C@](O)(C(=O)O)C[C@@H]1NC(=N)N
- IC50 (read-out: IC50): 4.9 µM

SMILES: CCCN(CCC)C(=O)[C@@H](NC(C)=O)[C@H]1C[C@@](O)(C(=O)O)C[C@@H]1NC(=N)N
- IC50 (read-out: IC50): 2300 µM

SMILES: CCCCCCCCCO[C@@H]1C=C(C(=O)O)C[C@H](N)[C@H]1NC(C)=O
- IC50 (read-out: IC50): 210 µM
- IC50 (read-out: pIC50 (converted)): 0.21 µM

SMILES: CC[C@@H](CC1CCCCC1)O[C@@H]1C=C(C(=O)O)C[C@H](N)[C@H]1NC(C)=O
- IC50 (read-out: IC50): 16 µM
- IC50 (read-out: pIC50 (converted)): 0.016 µM

SMILES: CC(C)N(CCCCC(=O)O)C(=O)N1C[C@@H](N)[C@@H](C(=O)O)C1
- IC50 (read-out: IC50): 1.3 µM

SMILES: CC(C)N(CCc1ccccn1)C(=O)N1C[C@@H](N)[C@@H](C(=O)O)C1
- IC50 (read-out: IC50): 1.3 µM

SMILES: CC[C@@H](Cc1ccccc1)O[C@@H]1C=C(C(=O)O)C[C@H](N)[C@H]1NC(C)=O
- IC50 (read-out: IC50): 620 µM
- IC50 (read-out: pIC50 (converted)): 0.621 µM

SMILES: CC(C)N(CCCO)C(=O)N1C[C@@H](N)[C@@H](C(=O)O)C1
- pIC50: 5.677

SMILES: CC(C)N(CCCCCO)C(=O)N1C[C@@H](N)[C@@H](C(=O)O)C1
- IC50 (read-out: IC50): 2 µM

SMILES: CC(=O)N[C@@H]1[C@@H](N)CC(C(=O)O)=C[C@H]1OC1CCCCC1
- IC50 (read-out: IC50): 60 µM
- IC50 (read-out: pIC50 (converted)): 0.0601 µM

SMILES: CCCO[C@@H]1C=C(C(=O)O)C[C@H](N)[C@H]1NC(C)=O
- IC50 (read-out: IC50): 180 µM
- IC50 (read-out: pIC50 (converted)): 0.18 µM

SMILES: CC[C@H](CCc1ccccc1)O[C@@H]1C=C(C(=O)O)C[C@H](N)[C@H]1NC(C)=O
- IC50 (read-out: IC50): 12 µM
- IC50 (read-out: pIC50 (converted)): 0.012 µM

SMILES: CC(=O)N[C@@H]1[C@@H](N)CC(C(=O)O)=C[C@H]1OCC(C)C
- IC50 (read-out: IC50): 200 µM
- IC50 (read-out: pIC50 (converted)): 0.2 µM

SMILES: CCCCO[C@@H]1C=C(C(=O)O)C[C@H](N)[C@H]1NC(C)=O
- IC50 (read-out: IC50): 300 µM
- IC50 (read-out: pIC50 (converted)): 0.301 µM

SMILES: CC(=O)N[C@@H]1[C@@H](N)CC(C(=O)O)=C[C@H]1OCCCc1ccc(-c2ccccc2)cc1
- IC50 (read-out: IC50): 90 µM
- IC50 (read-out: pIC50 (converted)): 0.0902 µM

SMILES: CC(=O)N[C@H]1[C@H](O)C=C(C(=O)O)C[C@@H]1N
- IC50 (read-out: IC50): 6300 µM

SMILES: CC[C@@H](CCc1ccccc1)O[C@@H]1C=C(C(=O)O)C[C@H](N)[C@H]1NC(C)=O
- IC50 (read-out: IC50): 0.3 µM
- IC50 (read-out: pIC50 (converted)): 0.000301 µM

SMILES: CCCCCCCCO[C@@H]1C=C(C(=O)O)C[C@H](N)[C@H]1NC(C)=O
- IC50 (read-out: IC50): 180 µM
- IC50 (read-out: pIC50 (converted)): 0.18 µM

SMILES: CCCCO[C@@H]1C=C(C(=O)O)C[C@H](N=C(N)N)[C@H]1NC(C)=O
- IC50 (read-out: IC50): 3 µM
- IC50 (read-out: pIC50 (converted)): 0.00301 µM

SMILES: CCCCCCCO[C@@H]1C=C(C(=O)O)C[C@H](N)[C@H]1NC(C)=O
- IC50 (read-out: IC50): 270 µM
- IC50 (read-out: pIC50 (converted)): 0.27 µM

SMILES: CCCCCCO[C@@H]1C=C(C(=O)O)C[C@H](N)[C@H]1NC(C)=O
- IC50 (read-out: IC50): 150 µM
- IC50 (read-out: pIC50 (converted)): 0.15 µM

SMILES: CCCCCO[C@@H]1C=C(C(=O)O)C[C@H](N)[C@H]1NC(C)=O
- IC50 (read-out: IC50): 200 µM
- IC50 (read-out: pIC50 (converted)): 0.2 µM
